We go through 11 compounds from patent US12187723B2 (BRISTOL-MYERS SQUIBB COMPANY, priority 2019, dated 2025).

One may read the IC50 as the concentration that inhibits the measured activity by half. Read a high IC50 as weaker potency in that assay.

This assay concerns the target T1, human TLR8 (Homo sapiens, UniProt Q9NR97).
T1 construct: host or cells: HEK-Blue cells
T1 sequence (Q9NR97 27-1041): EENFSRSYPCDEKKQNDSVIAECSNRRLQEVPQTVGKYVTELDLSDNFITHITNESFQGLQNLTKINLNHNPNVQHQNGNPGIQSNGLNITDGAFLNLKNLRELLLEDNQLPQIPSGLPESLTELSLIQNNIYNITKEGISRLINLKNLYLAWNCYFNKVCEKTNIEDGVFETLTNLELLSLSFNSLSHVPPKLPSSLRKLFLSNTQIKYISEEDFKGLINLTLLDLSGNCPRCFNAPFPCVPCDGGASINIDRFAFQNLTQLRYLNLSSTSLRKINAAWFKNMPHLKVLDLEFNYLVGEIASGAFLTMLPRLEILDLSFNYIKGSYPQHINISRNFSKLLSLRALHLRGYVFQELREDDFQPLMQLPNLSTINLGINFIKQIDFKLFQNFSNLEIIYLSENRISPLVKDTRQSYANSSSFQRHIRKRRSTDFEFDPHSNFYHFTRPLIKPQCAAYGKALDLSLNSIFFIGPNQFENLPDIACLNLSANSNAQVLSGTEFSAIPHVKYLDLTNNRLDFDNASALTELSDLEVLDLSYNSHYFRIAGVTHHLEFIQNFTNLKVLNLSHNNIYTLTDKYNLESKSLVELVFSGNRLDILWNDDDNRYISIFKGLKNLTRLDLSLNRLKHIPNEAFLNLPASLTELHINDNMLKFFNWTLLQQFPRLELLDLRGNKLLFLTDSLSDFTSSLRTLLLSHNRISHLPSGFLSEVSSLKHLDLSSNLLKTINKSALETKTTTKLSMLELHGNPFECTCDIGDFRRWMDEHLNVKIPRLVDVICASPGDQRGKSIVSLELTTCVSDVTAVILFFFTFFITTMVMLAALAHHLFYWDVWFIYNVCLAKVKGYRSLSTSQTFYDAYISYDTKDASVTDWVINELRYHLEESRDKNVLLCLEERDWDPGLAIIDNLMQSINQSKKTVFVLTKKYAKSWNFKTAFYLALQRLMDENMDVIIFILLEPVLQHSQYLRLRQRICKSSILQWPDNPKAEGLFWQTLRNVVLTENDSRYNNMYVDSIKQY
Briefly: TLR8 inhibition reporter assay (HEK-Blue SEAP). It is filed as cell-based. The conditions noted are these: HEK-Blue cells overexpressing human TLR8, R848 15.9 μM, 22 hour incubation. The procedure:
TLR7/8/9 Inhibition Reporter Assays
HEK-Blue™-cells (Invivogen) overexpressing human TLR7, TLR8 or TLR9 receptors were used for screening inhibitors of these receptors using an inducible SEAP (secreted embryonic alkaline phosphatase) reporter gene under the control of the IFN-β minimal promoter fused to five NF-κB and AP-1-binding sites. Briefly, cells are seeded into Greiner 384 well plates (15000 cells per well for TLR7, 20,000 for TLR8 and 25,000 for TLR9) and then treated with test compounds in DMSO to yield a final dose response concentration range of 0.05 nM-50 μM. After a 30 minute compound pre-treatment at room temperature, the cells are then stimulated with a TLR7 ligand (gardiquimod at a final concentration of 7.5 μM), TLR8 ligand (R848 at a final concentration of 15.9 μM) or TLR9 ligand (ODN2006 at a final concentration of 5 nM) to activate NF-κB and AP-1 which induce the production of SEAP. After a 22 hour incubation at 37° C., 5% CO2, SEAP levels are determined with the addition of HEK-Blue™ Detection reagent (Invivogen), a cell culture medium that allows for detection of SEAP, according to manufacturer's specifications. The percent inhibition is determined as the % reduction in the HEK-Blue signal present in wells treated with agonist plus DMSO alone compared to wells treated with a known inhibitor.
Background: A reporter such as luciferase makes a cellular process visible.
The compound `COc1cc(-c2cc3[nH]c(=O)n([C@H]4CCCN(CC(C)C)C4)c3cc2C(C)C)cn2ncnc12` [Example 129, (S)-1-(1-isobutylpiperidin-3-yl)-6-isopropyl-5-(8-methoxy-[1,2,4]triazolo[1,5-a]pyridin-6-yl)-1,3-dihydro-2H-benzo[d]imidazol-2-one] displayed an IC50 of 4 nM.

`COc1cc(-c2cc3[nH]c(=O)n([C@@H]4CCCN(CC5CCOCC5)C4)c3cc2C(F)(F)F)cn2ncnc12` [Example 112, (R)-5-(8-methoxy-[1,2,4]triazolo[1,5-a]pyridin-6-yl)-1-(1-((tetrahydro-2H-pyran-4-yl)methyl)piperidin-3-yl)-6-(trifluoromethyl)-1,3-dihydro-2H-benzo[d]imidazol-2-one] had an IC50 of 20.3 nM.

`Cc1cc2c(cc1-c1cc(C)c3ncnn3c1)[nH]c(=O)n2[C@@H]1CCCN(CC#N)C1` [Example 96, (R)-2-(3-(6-methyl-5-(8-methyl-[1,2,4]triazolo[1,5-a]pyridin-6-yl)-2-oxo-2,3-dihydro-1H-benzo[d]imidazol-1-yl)piperidin-1-yl)acetonitrile] yielded an IC50 of 45.3 nM.

In the case of `COc1cc(-c2cc3[nH]c(=O)n(C4CCN(C5CCC5)CC4)c3cc2C(C)C)cn2ncnc12` [Example 156, 1-(1-cyclobutylpiperidin-4-yl)-6-isopropyl-5-(8-methoxy-[1,2,4]triazolo[1,5-a]pyridin-6-yl)-1,3-dihydro-2H-benzo[d]imidazol-2-one], the IC50 came to 4.77 nM. Compared with the last compound, the IC50 is about 9.5-fold lower.

As for `CCC(CC)CN1CCC[C@H](n2c(=O)[nH]c3cc(-c4cc(OC)c5ncnn5c4)c(C(C)C)cc32)C1` [Example 130, (S)-1-(1-(2-ethylbutyl)piperidin-3-yl)-6-isopropyl-5-(8-methoxy-[1,2,4]triazolo[1,5-a]pyridin-6-yl)-1,3-dihydro-2H-benzo[d]imidazol-2-one], the IC50 is 8.52 nM.

For the compound `Cc1cc(-c2cc(C)c3ncnn3c2)cc2[nH]c(=O)n(C3CCN(C(C)C)CC3)c12` [Example 107, 1-(1-isopropylpiperidin-4-yl)-7-methyl-5-(8-methyl-[1,2,4]triazolo[1,5-a]pyridin-6-yl)-1,3-dihydro-2H-benzo[d]imidazol-2-one], the half-maximal inhibitory concentration (IC50) is 249 nM.

In turn, `Cc1cc(-c2cc(C)c3ncnn3c2)cc2[nH]c(=O)n(C3CCN(CC(=O)N(C)C)CC3)c12` [Example 109, N,N-dimethyl-2-(4-(7-methyl-5-(8-methyl-[1,2,4]triazolo[1,5-a]pyridin-6-yl)-2-oxo-2,3-dihydro-1H-benzo[d]imidazol-1-yl)piperidin-1-yl)acetamide] displayed an IC50 of 541 nM.

As for `COc1cc(-c2cc3[nH]c(=O)n(C4CCCN(C(=O)CN(C)C)C4)c3cc2C)cn2ncnc12` (centres unmarked) [Example 105, 1-(1-(dimethylglycyl)piperidin-3-yl)-5-(8-methoxy-[1,2,4]triazolo[1,5-a]pyridin-6-yl)-6-methyl-1,3-dihydro-2H-benzo[d]imidazol-2-one], the IC50 came to 318 nM.

In the case of `COc1cc(-c2cc3[nH]c(=O)n([C@@H]4CCCN(CC(C)C)C4)c3cc2C(C)C)cn2ncnc12` [Example 141, (R)-1-(1-isobutylpiperidin-3-yl)-6-isopropyl-5-(8-methoxy-[1,2,4]triazolo[1,5-a]pyridin-6-yl)-1,3-dihydro-2H-benzo[d]imidazol-2-one], the IC50 was 0.56 nM.

With `Cc1cc2c(cc1-c1cc(C)c3ncnn3c1)[nH]c(=O)n2[C@@H]1CCCN(C(=O)CN(C)C)C1` [Example 104, (R)-1-(1-(dimethylglycyl)piperidin-3-yl)-6-methyl-5-(8-methyl-[1,2,4]triazolo[1,5-a]pyridin-6-yl)-1,3-dihydro-2H-benzo[d]imidazol-2-one], the half-maximal inhibitory concentration (IC50) was 47.6 nM.

As for `COc1cc(-c2cc3[nH]c(=O)n(C4CCN(C(=O)CN(C)C)CC4)c3cc2C)cn2ncnc12` [Example 100, 1-(1-(2-(dimethylamino)acetyl)piperidin-4-yl)-5-(8-methoxy-[1,2,4]triazolo[1,5-a]pyridin-6-yl)-6-methyl-1H-benzo[d]imidazol-2(3H)-one], the midpoint of inhibition, the IC50, lay at 175 nM.
